According to patent US10842150B2, “Method of controlling Fusarium on potato using lower alkyl naphthalene” (1,4Group, Inc., priority 2018, dated 2020):
“Also recorded” adds a separate entry of the source.

Tests used:
F. oxysporum = assay: Single spore isolate plates of F. oxysporum exposed to 1,4-DMN vapour; colony count and mycelium diameter; assay type: cell-based, Fusarium oxysporum
Text: F. oxysporum was isolated from the surface of potato tuber using the Fusarium selective media Nash-Snider, to which cultures were transferred and maintained on nutritionally complex potato dextrose agar plates. DNA sequencing using selective primers NL1, NL2, ITS1F, and ITS2R confirmed the fungus to be F. oxysporum.
A single spore isolation technique was utilized to record the number and growth response of the spores treated with 1,4-DMN in comparison with the spores treated with water (i.e., the Control). Single spore isolate plates were contained in vacuum sealed chambers and incubated at a constant temperature of about 22° C., while exposed to 7.5 μl of 1,4-DMN via aerosol dispersion for four days. After a day of rest, the spores on each plate were measured and counted.
Potato skin scrapings were cultured on the Fusarium selective media Nash Snider Agar, and later transferred and maintained on nutritionally complex Potato Dextrose Agar (PDA) (Step 1.1 in FIG. 1). DNA isolations were performed on single spore isolates using a Power Soil DNA Isolation Kit (Step 1.2 in FIG. 1). Several primers as shown in FIG. 2 were studied for amplification of Fungal DNA. Fusarium selective primers NL1, NL2, ITS1F, and ITS2 allowed PCR amplification of fungal strains genomically similar to Fusarium. […] The DNA were sequenced, and the sequence data were analyzed using NCBI BLASTn sequence alignment (Step 1.4 in FIG. 1). […] The strain identified as F. oxysporum was then subjected to treatments of DMN (7.5 μl) in specialized airtight bins, and incubated at a constant temperature of about 25° C. for four days (Step 1.5 in FIG. 1). […] Then, colony quantity and mycelium diameter were determined (Step 1.6 in FIG. 1).

Fusarium spp. = details: two storage trials over two years; cited from earlier work
Fusarium wilt = details: treatment of potato tuber; cited from earlier work

| Structure (SMILES) | efficacy in suppressing tuber infection caused by Fusarium spp. (in words) (Fusarium spp.) | effect in controlling Fusarium wilt development (in words) (Fusarium wilt) | also measured |
| --- | --- | --- | --- |
| Cc1ccc(C)c2ccccc12 [1,4-DMN, 1,4-dimethyl naphthalene] |  |  | Average Colony mycelium diameter (F. oxysporum; 7.5 μl 1,4-DMN via aerosol dispersion in sealed chamber, four days, about 22° C. / 25° C., Control 9.89 cm): 2.94 cm; Average Colonies per Plate (F. oxysporum; 7.5 μl 1,4-DMN, four days, Control 4.05): 4.125; Total Colonies (F. oxysporum; 7.5 μl 1,4-DMN, four days, Control 162): 165; mycelium growth of F. oxysporum versus untreated Control (in words) (F. oxysporum; exposure to 1,4-DMN for four days): slower mycelium diameter growth; also recorded: inhibition of mycelium growth |
| OP(O)O [Phosphorous acid, phosphorous acid] | moderately effective |  |  |
| CO/C=C(/C(=O)OC)c1ccccc1Oc1cc(Oc2ccccc2C#N)ncn1 [azoxystrobin] | moderately effective |  |  |
| N#Cc1c[nH]cc1-c1cccc2c1OC(F)(F)O2 [fludioxonil] |  | limited effect |  |
| OO [hydrogen peroxide] | moderately effective |  |  |
| c1ccc2ncccc2c1 [quinoline] |  | limited effect |  |
